Assay [1] has as its target T1, human sodium channels Nav 1.8 (Homo sapiens, UniProt Q9Y5Y9).
T1 construct: expressed in transfected cells
The assay is described as follows: Automated whole-cell voltage-clamp (ScreenPatch 384P) sodium current block, Nav 1.8. It is filed as cell-based. The conditions noted are these: CHO cells stably expressing human Nav 1.8; inactivation step -40 mV 8 s, test step 10 mV (TP1A); eight concentrations; exposure at least five minutes; room temperature; read-out: Nav1.8 IC50. The method, then:
(§1) Biological assays were performed on Chinese hamster ovary (CHO) cells that express human sodium channels Nav 1.8 or Nav 1.7 in a stable manner.
(§2) The experimental protocol voltage-clamp using the whole cell configuration was established on the automated ScreenPatch® 384P platform (SP384PE, Nanion Technologies, Livingston, NJ) and the results were recorded with a Nanion 384-well Patch Clamp chip (NPC) (Nanion Technologies, Livingston, NJ).
(§3) Formula I compounds were diluted in eight concentrations in the extracellular solution composed of saline solution, buffered with HEPES (mM): NaCl, 137; KCl, 4; CaCl2, 3,8; MgCl2, 1; HEPES, 10; Glucose, 10; pH 7.4. The […], 50; CsF, 90; MgCl2, 5; EGTA, 5; HEPES, 10; pH 7.2. The duration of exposure of each compound with cells expressing Nav 1.7 or Nav 1.8 was at least five minutes and the assays were performed at room temperature.
(§4) The measurements of the sodium currents of Nav 1.8 and Nav 1.7 were obtained using the voltage protocol described below.
(§5) A holding voltage of -100 mV was established followed by an inactivation voltage step at -40 mV for 8 seconds, followed by a step of -100 mV for 20 ms, followed by a 20 ms step for 10 mV for Nav 1.8 or 0 mV for Nav 1.7 (TP1A) before returning to the holding voltage of -100 mV.
(§6) The protocol was repeated at a frequency of 0.05 Hz and the amplitude of the current was quantified throughout the recording of the TP1A phase. The variation in the amplitude of the peak current was evaluated according to the formula described below, after exposing the cells expressing the channels to each concentration of the different compounds: % Block = (1−(ITP1A,molecule/ITP1A,basal)×100%, [formula] wherein ITP1A,basal and ITP1A,molecule represent the peaks of sodium current input into TP1A before exposure to the compound and in the presence of the compound, respectively.
(§7) Data were obtained by nonlinear regression (nonlinear least squares) with XLfit for Excel (Microsoft, Redmond, WA).
(§8) The compounds were tested in at least one assay to obtain the value of CI50. For compounds that were tested in two or more assays, the results are described as the means of the CI50 values.

For assay [2], the target named is T2, human sodium channels Nav 1.7 (Homo sapiens, UniProt Q15858).
T2 construct: expressed in transfected cells
The assay is described as follows: Automated whole-cell voltage-clamp (ScreenPatch 384P) sodium current block, Nav 1.7. Format: cell-based. Conditions: CHO cells stably expressing human Nav 1.7; inactivation step -40 mV 8 s, test step 0 mV (TP1A); eight concentrations; exposure at least five minutes; room temperature; read-out: Nav1.7 IC50. The procedure: as §1, §2, §3, §4, §5, §6, §7, §8

T2 sequence (Q15858 whole entry): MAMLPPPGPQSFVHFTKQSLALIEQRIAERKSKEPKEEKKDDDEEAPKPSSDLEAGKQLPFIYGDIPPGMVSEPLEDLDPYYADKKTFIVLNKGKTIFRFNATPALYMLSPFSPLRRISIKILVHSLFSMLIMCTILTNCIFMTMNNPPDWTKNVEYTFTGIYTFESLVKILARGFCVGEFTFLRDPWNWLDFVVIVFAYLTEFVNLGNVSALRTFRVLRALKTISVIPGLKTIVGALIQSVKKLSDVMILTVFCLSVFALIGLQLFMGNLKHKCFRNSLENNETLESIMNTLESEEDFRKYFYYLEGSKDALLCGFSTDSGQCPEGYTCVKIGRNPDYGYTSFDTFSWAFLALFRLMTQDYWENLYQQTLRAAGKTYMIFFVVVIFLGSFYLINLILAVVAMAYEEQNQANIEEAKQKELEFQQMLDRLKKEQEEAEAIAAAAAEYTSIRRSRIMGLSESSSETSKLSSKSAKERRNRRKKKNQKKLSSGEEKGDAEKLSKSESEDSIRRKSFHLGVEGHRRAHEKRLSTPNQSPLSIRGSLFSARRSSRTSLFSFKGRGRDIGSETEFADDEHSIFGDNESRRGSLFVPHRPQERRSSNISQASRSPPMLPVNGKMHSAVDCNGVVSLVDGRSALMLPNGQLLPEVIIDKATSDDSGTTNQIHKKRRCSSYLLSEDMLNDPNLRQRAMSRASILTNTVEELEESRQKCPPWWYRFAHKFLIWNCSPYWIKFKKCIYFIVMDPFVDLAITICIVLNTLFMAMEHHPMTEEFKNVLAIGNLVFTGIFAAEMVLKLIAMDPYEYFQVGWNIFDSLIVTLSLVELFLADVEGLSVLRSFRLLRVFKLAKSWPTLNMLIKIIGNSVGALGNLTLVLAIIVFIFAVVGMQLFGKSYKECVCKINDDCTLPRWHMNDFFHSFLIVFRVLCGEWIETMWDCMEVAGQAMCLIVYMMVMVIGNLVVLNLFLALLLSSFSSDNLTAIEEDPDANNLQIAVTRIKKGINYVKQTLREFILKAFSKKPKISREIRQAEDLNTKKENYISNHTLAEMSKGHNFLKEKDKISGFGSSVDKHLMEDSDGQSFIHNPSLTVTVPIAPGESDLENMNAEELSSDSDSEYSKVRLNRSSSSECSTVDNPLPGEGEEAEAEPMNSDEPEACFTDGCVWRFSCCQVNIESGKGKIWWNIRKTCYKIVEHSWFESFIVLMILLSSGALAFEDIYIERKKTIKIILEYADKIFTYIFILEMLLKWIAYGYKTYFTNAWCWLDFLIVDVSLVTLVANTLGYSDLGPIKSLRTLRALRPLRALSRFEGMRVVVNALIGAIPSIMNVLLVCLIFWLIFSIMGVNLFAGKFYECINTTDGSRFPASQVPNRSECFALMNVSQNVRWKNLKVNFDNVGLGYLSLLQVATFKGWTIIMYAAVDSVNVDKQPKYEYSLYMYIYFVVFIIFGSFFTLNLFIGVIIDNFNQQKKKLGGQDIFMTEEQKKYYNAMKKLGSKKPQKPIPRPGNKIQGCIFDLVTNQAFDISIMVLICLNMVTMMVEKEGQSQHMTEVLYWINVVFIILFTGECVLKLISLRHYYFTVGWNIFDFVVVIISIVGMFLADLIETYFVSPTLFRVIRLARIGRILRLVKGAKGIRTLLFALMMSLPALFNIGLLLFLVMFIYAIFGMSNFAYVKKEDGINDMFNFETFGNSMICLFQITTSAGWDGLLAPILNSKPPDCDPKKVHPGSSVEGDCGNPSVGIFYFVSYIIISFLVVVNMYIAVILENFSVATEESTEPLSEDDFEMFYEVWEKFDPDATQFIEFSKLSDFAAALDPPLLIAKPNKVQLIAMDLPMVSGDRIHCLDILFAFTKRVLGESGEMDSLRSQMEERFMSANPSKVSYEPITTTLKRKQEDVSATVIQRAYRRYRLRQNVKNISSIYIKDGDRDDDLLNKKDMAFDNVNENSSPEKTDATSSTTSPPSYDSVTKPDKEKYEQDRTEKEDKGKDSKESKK
T1 sequence (Q9Y5Y9 whole entry): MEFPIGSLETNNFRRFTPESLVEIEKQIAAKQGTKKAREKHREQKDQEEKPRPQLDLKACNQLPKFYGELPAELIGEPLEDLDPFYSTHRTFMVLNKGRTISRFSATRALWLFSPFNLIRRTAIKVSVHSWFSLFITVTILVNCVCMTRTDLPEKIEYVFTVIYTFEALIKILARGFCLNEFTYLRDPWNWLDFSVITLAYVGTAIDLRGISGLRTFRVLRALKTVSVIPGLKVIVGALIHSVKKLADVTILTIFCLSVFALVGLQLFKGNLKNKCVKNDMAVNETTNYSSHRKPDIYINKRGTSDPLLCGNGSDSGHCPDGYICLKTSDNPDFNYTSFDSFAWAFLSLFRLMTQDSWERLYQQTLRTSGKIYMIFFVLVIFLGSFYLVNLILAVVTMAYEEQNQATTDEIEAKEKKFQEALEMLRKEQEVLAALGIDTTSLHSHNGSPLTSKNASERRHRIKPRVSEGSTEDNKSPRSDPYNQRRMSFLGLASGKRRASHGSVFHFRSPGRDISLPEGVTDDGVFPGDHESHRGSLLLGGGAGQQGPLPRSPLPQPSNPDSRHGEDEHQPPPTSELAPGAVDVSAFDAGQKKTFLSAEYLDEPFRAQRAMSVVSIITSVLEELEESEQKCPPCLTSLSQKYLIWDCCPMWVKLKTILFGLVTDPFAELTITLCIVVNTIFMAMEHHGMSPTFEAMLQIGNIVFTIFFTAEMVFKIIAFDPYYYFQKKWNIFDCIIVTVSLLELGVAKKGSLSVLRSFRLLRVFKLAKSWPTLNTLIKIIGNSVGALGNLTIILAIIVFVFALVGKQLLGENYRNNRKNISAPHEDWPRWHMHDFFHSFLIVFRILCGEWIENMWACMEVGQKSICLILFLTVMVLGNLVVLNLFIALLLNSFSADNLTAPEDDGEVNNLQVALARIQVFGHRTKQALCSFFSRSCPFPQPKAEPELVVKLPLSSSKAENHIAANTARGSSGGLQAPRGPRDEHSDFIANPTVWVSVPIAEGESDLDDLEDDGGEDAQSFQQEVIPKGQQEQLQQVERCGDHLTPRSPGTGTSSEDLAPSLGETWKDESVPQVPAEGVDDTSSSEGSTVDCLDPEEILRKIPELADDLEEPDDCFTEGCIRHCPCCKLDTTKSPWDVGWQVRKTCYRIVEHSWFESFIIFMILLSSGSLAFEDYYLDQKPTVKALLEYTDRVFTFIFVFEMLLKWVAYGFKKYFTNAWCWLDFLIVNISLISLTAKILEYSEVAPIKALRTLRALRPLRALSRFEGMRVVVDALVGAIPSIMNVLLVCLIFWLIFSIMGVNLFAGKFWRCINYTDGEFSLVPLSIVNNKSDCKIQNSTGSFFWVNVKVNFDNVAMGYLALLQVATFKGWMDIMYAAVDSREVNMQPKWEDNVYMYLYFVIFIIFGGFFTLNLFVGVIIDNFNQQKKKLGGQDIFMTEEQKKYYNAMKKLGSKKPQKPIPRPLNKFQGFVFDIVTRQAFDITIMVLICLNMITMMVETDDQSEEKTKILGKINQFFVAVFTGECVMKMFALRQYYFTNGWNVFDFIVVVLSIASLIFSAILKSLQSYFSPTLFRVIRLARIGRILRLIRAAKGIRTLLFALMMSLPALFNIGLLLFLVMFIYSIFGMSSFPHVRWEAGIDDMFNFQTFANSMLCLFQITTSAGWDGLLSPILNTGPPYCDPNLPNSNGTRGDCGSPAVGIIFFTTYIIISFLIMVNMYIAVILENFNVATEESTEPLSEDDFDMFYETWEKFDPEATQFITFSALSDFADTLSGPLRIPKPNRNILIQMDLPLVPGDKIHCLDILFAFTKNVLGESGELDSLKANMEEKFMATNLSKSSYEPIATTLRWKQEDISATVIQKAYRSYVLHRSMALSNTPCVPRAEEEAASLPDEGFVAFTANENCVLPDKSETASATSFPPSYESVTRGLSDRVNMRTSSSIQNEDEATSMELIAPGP

For `CCOc1cc(C)c(-c2cncc(C(=O)N/N=C/c3cc(OC)cnc3F)n2)cn1` [Compound 151, (E)-6-(6-ethoxy-4-methylpyridine-3-yl)-N'-((2-fluoro-5-methoxypyridine-3-yl)methylene)pyrazine-2-carbohydrazide], the IC50 in assay [1] is < 500 nM; in assay [2] it was > 1000 nM.

Turning to `COc1ccc(F)c(/C=N/NC(=O)c2cncc(-c3ccc(OC4CNC4)nc3)n2)c1` [Compound 139, (E)-6-(6-(azetidin-3-yloxy)pyridine-3-yl)-N'-(2-fluoro-5-methoxybenzylidene) pyrazine-2-carbohydrazide], the IC50 in assay [1] and in assay [2] was > 1000 nM in each case.

Regarding `[2H]C([2H])([2H])COc1ccc(-c2cncc(C(=O)N/N=C/c3cc(OC)cnc3F)n2)cn1` [Compound 168, (E)-6-(6-(ethoxy-2,2,2-d3)pyridine-3-yl)-N'-((2-fluoro-5-methoxypyridine-3-yl)methylene)pyrazine-2-carbohydrazide], the IC50 is < 500 nM in assay [1] and > 1000 nM in assay [2].

In the case of `COc1ccc(C)c(/C=N/NC(=O)c2cncc(-c3ccc(OC(F)F)nc3)n2)c1` [Compound 102, (E)-6-(6-(difluoromethoxy)pyridine-3-yl)-N'-(5-methoxy-2-methylbenzylidene) pyrazine-2-carbohydrazide], the IC50 in assay [1] is < 500 nM; in assay [2], > 1000 nM.

With `CCOc1ccc(-c2cncc(C(=O)N/N=C/c3ccc(F)c(OC)c3)n2)cn1` [Compound 2, (E)-6-(6-ethoxypyridine-3-yl)-N'-(4-fluoro-3-methoxybenzylidene)pyrazine-2-carbohydrazide], the half-maximal inhibitory concentration (IC50) in assay [1] was < 500 nM; in assay [2], 500 to 1000 nM.

Take `CN(C)c1ccc(F)c(/C=N/NC(=O)c2cncc(-c3ccc(OC(F)F)nc3)n2)c1` [Compound 104, (E)-6-(6-(difluoromethoxy)pyridine-3-yl)-N'-(5-(dimethylamino)-2-fluorobenzylidene) pyrazine-2-carbohydrazide]: the IC50 was < 500 nM in assay [1] and > 1000 nM in assay [2].

For `CCOc1ccc(-c2ccnc(C(=O)N/N=C/c3cc(OC)cnc3F)n2)cn1` [Compound 73, (E)-4-(6-ethoxypyridine-3-yl)-N'-((2-fluoro-5-methoxypyridine-3-yl)methylene) pyrimidine-2-carbohydrazide], the IC50 is 500 to 1000 nM in assay [1] and > 1000 nM in assay [2].

On to `CCOc1ccc(-c2cncc(C(=O)N/N=C/c3cc(OC4CN(C)C4)ccc3F)n2)cn1` [Compound 39, (E)-6-(6-ethoxypyridine-3-yl)-N'-(2-fluoro-5-((1-methylazetidine-3-yl)oxy)benzylidene) pyrazine-2-carbohydrazide], for which the IC50 in assay [1] and in assay [2] was > 1000 nM in each case.

On to `CCOc1ccc(-c2cncc(C(=O)N/N=C/c3[nH]ccc3C)n2)cn1` [Compound 56, (E)-6-(6-ethoxypyridine-3-yl)-N'-((3-methyl-1H-pyrrole-2-yl)methylene)pyrazine-2-carbohydrazide], for which the IC50 in assay [1] was 500 to 1000 nM; in assay [2] it was > 1000 nM.

Regarding `CCOc1ccc(-c2cncc(C(=O)N/N=C/c3cc(OC4CNC4)cnc3F)n2)cn1` [Compound 34, (E)-N'-((5-(azetidin-3-yloxy)-2-fluoropyridine-3-yl)methylene)-6-(6-ethoxypyridine-3-yl) pyrazine-2-carbohydrazide], the IC50 in assay [1] and in assay [2] was > 1000 nM each time.

For the compound `CCOc1ccc(-c2cncc(C(=O)N/N=C/c3ccnn3CC)n2)cn1` [Compound 52, (E)-6-(6-ethoxypyridine-3-yl)-N'-((1-ethyl-1H-pyrazole-5-yl)methylene)pyrazine-2-carbohydrazide], the IC50 was < 500 nM in assay [1] and > 1000 nM in assay [2].

Take `COc1cnc(F)c(/C=N/NC(=O)c2cncc(-c3ccc(OC(F)F)nc3)n2)c1` [Compound 101, (E)-6-(6-(difluoromethoxy)pyridine-3-yl)-N'-((2-fluoro-5-methoxypyridine-3-yl)methylene)pyrazine-2-carbohydrazide]: the values for the concentration for half-maximal inhibition (IC50) in assay [1] and in assay [2] were < 500 nM and > 1000 nM, respectively.

These data come from patent publication EP4660182A1, “NAV1.7- AND/OR NAV1.8-INHIBITING ARYL PYRIDINE COMPOUNDS, PROCESSES FOR THE PREPARATION THEREOF, COMPOSITIONS, USES, METHODS FOR TREATMENT USING SAME, AND KITS” (Eurofarma Laboratórios S.A., priority 2023, dated 2024).
